Assay results: PMC12249541, “Novel Derivatives of 3-Amino-4-hydroxy-benzenesulfonamide: Synthesis, Binding to Carbonic Anhydrases, and Activity in Cancer Cell 2D and 3D Cultures” (International Journal of Molecular Sciences, 2025)
Entries after “also recorded” stand apart in the source; their conditions may differ. Where two headings read alike, the source gives them in different places.

Legend:
[1] = system: human glioblastoma U-87; experiment: MTT cell viability assay, U-87; type: cell-based; conditions: 72 h, read-out: EC50, U-87
[2] = system: triple-negative breast cancer MDA-MB-231; experiment: MTT cell viability assay, MDA-MB-231; type: cell-based, human; conditions: read-out: EC50, MDA-MB-231
[3] = system: prostate adenocarcinoma PPC-1; experiment: MTT cell viability assay, PPC-1; type: cell-based; conditions: Homo sapiens, read-out: EC50, PPC-1
[4] = system: human foreskin fibroblasts (HFs); experiment: MTT cell viability assay, fibroblasts; type: cell-based; conditions: Fibroblast, 72 h, read-out: EC50, HF
[5] = system: U-87, MDA-MB-231, PPC-1 cell lines; experiment: MTT cell viability assay, statements over several cell lines; type: cell-based, human; conditions: for EC50 / viability at 100 µM: Homo sapiens; for EC50: read-out: EC50 values, range over different cell lines
[6] = target: CAI (Homo sapiens, UniProt P00915); experiment: Fluorescent thermal shift assay (FTSA), CAI; type: binding
[7] = target: CAVA (Homo sapiens, UniProt P35218); experiment: Fluorescent thermal shift assay (FTSA), CAVA; type: binding; conditions: compared with compound 10
[8] = target: CAIX (Homo sapiens, UniProt Q16790); experiment: Fluorescent thermal shift assay (FTSA), CAIX; type: binding; conditions: compared with compound 10
[9] = system: recombinant human carbonic anhydrases (CAs); experiment: FTSA, statements over several CA isoenzymes; type: binding; conditions: up to 200 µM
[10] = system: U-87 spheroids; experiment: 3D culture (cancer spheroids), U-87; type: cell-based, human; conditions: 10 µM
[11] = system: MDA-MB-231 spheroids; experiment: 3D culture (cancer spheroids), MDA-MB-231; type: cell-based, human; conditions: 10 µM
[12] = system: PPC-1 spheroids; experiment: 3D culture (cancer spheroids), PPC-1; type: cell-based, human; conditions: 10 µM
[13] = target: CAII (Homo sapiens, UniProt P00918); experiment: Fluorescent thermal shift assay (FTSA), CAII; type: binding; conditions: compared with compound 24
[14] = 100 μM, 72 h, MTT, at least one of the tested cell lines
[15] = Homo sapiens, MDA-MB-231, MTT, 72 h
[16] = MTT at the end of the experiment
[17] = cancer cells and fibroblasts 1:1, vs control

Chain of CAI (P00915 whole entry): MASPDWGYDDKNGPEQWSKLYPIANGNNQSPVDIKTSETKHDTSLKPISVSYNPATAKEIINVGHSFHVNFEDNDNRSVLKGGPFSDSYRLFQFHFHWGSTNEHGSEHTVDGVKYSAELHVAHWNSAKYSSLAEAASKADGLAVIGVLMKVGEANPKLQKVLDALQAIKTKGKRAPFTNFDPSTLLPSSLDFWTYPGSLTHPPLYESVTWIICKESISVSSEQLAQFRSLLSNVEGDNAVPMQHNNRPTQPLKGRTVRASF
Chain of CAVA (P35218 39-305): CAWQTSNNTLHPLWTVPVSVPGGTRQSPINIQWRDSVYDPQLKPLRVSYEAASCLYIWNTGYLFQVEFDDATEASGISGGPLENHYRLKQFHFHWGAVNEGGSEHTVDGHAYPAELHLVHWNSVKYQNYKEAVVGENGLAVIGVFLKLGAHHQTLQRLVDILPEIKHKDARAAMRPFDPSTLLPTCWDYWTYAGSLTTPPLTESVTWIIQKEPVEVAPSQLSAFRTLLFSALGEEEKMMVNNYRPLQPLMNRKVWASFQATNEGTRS

## NS(=O)(=O)c1ccc(O)c(N=Cc2ccc([N+](=O)[O-])s2)c1 [Compound 9, 4-Hydroxy-3-(((5-nitrothiophen-2-yl)methylene)amino)benzenesulfonamide]
[1]
  EC50: 23.3 ± 2.9 µM
[2]; Homo sapiens, MDA-MB-231, 72 h
  EC50: 14 ± 3.2 µM
[3]; PPC-1, 72 h
  EC50: 13 ± 3.5 µM
[4]
  EC50: 13.8 ± 5.2 µM
[5]; 72 h
  EC50: 13 to 23.3 µM
[5]; [14]
  viability at 100 µM: < 20%

## NS(=O)(=O)c1ccc(O)c(NCC(=O)c2ccc(Cl)cc2)c1 [Compound 12, 4-Hydroxy-3-((2-(4-chlorophenyl)-2-oxoethyl)amino)benzenesulfonamide]
[6]; 0–200 µM of compound, FTSA
  melting temperature (Tm) of CAI with increasing compound concentration: 56 to 66 °C
[1]; MTT
  EC50: 137 ± 15.4 µM
[2]; [15]
  EC50: 148 ± 22.5 µM
[3]; PPC-1, MTT, 72 h
  EC50: 137 ± 15.5 µM
[4]; MTT
  EC50: 166 ± 7 µM
[5]; [14]
  viability at 100 µM: < 20%

## NS(=O)(=O)c1ccc(O)c(NCC(=O)c2cccc3ccccc23)c1 [Compound 14, 4-Hydroxy-3-((2-(naphthalen-1-yl)-2-oxoethyl)amino)benzenesulfonamide]
[6]; compared with compound 10
  fold increase in affinity, CAI: 60 ×
[7]
  fold increase in affinity, CAVA: 9 ×
[8]
  fold increase in affinity, CAIX: 4.5 ×
[5]; [14]
  cell viability: did not show high cytotoxicity

## NS(=O)(=O)c1ccc(O)c(NCC(=NN=C(CNc2cc(S(N)(=O)=O)ccc2O)c2ccccc2)c2ccccc2)c1 [Compound 18, 3,3′-((Hydrazine-1,2-diylidenebis(2-phenylethan-1-yl-2-ylidene))bis(azanediyl))bis(4-hydroxybenzenesulfonamide)]
[1]; MTT
  EC50: 105 ± 6 µM
[2]; [15]
  EC50: 127 ± 20.8 µM
[3]; PPC-1, MTT, 72 h
  EC50: 108 ± 17.7 µM
[4]; MTT
  EC50: 134 ± 11.1 µM
[5]; [14]
  viability at 100 µM: < 20%

## CCOc1ccc(S(=O)(=O)N(CC)CC)cc1-n1cc(-c2ccccc2)n(CC)c1=O [Compound 21, 4-Ethoxy-N,N-diethyl-3-(3-ethyl-2-oxo-4-phenyl-2,3-dihydro-1H-imidazol-1-yl)benzenesulfonamide]
[9]
  binding to CA isoenzymes (in words): completely lost its ability to bind; also recorded: abolished the ability; also recorded: did not bind any of the tested CAs
[1]; MTT
  EC50: 148 ± 10.4 µM
[2]; [15]
  EC50: 57.3 ± 15 µM
[3]; PPC-1, MTT, 72 h
  EC50: 43.7 ± 15 µM
[4]; MTT
  EC50: 259 ± 8.4 µM
[5]; [14]
  viability at 100 µM: < 20%
[5]; MTT, 72 h
  EC50: 43.7 to 148 µM
[5]; from EC50 values, cancer cell lines vs HF
  selectivity for cancer cells over fibroblasts: 1.5–6 times
[10]; [16]
  viability of cells in spheroids, U-87: reduced the viability
[10]; [17]
  spheroid growth / size, U-87: reduced the growth
[11]; [16]
  viability of cells in spheroids, MDA-MB-231: reduced the viability
[11]; [17]
  spheroid growth / size, MDA-MB-231: reduced the growth
[12]; [16]
  viability of cells in spheroids, PPC-1: reduced the viability
[12]; [17]
  spheroid growth / size, PPC-1: no statistically significant effect

## CCOc1ccc(S(=O)(=O)N(CC)CC)cc1-n1cc(-c2ccccc2)nc1SCC [Compound 23, 4-Ethoxy-N,N-diethyl-3-(2-(ethylthio)-4-phenyl-1H-imidazol-1-yl)benzenesulfonamide]
[9]
  binding to CA isoenzymes (in words): lost its affinity; also recorded: abolished the ability

## COC(=O)CCNc1cc(S(N)(=O)=O)ccc1O [Compound 25, Methyl 3-((2-hydroxy-5-sulfamoylphenyl)amino)propanoate]
[13]
  fold increase in affinity, CAII: ~40 ×

## CC(=O)Nc1cc(S(=O)(=O)NC(C)=O)ccc1O [Compound 27, N -((3-Acetamido-4-hydroxyphenyl)sulfonyl)acetamide]
[9]
  binding to CA isoenzymes (in words): did not interact; also recorded: abolished the ability

## NS(=O)(=O)c1ccc(NC(=O)Nc2ccc(F)cc2)cc1 [Compound U-104, reference compound]
[2]; MTT, 72 h
  EC50: 240 ± 18 µM
